From paper PMC2752665 (Nature chemical biology, 2009)

Legend:
wt KSHV Pr = wt KSHV Pr (Human herpesvirus 8 type P, UniProt Q2HRB6, S204G); assay type: binding; conditions: 23 μM 13C-Met wt KSHV Pr, 1 molar equivalence inhibitor (24 μM)
KSHV Pr dimer = KSHV Pr dimer (Human herpesvirus 8 type P, UniProt Q2HRB6, S204G); assay type: binding
[1] = Dynamic light scattering for particle formation; assay type: physicochemical
KSHV Pr [2] = target: T1, KSHV Pr (Human herpesvirus 8 type P, UniProt Q2HRB6, S204G); assay: Inhibition kinetics; assay type: biochemical, human Kaposi's sarcoma-associated herpesvirus (KSHV)
p53-MDM2 = conditions: cited from earlier work
KSHV Pr [3] = target: T1, KSHV Pr; assay type: biochemical, human Kaposi's sarcoma-associated herpesvirus (KSHV); conditions: substitution from meta position to para or ortho
[4] = 1 -10 μM concentration range of DD2

With O=C(O)c1ccc(NC(=O)c2cccc(CC3CCCCC3)n2)c(Cc2ccccc2)c1 [Compound 2] the “M197-dimer peak in 1H-13C HSQC” value (wt KSHV Pr) was “broadens beyond detection”, the “elution profile of KSHV Pr (dimerization state)” value (KSHV Pr dimer; 5 μM wt KSHV Pr pre-incubated with 30 μM compound) was “eluted predominantly as a monomer” and the “particle formation by dynamic light scattering” value [1] was “did not show evidence of particle formation”. For the same molecule, the “decrease in Vmax” value (KSHV Pr [2]; [4]) was 3 fold, the “increase in KM” value (KSHV Pr [2]; [4]) was 2.5 fold and the type of inhibition (KSHV Pr [2]; Lineweaver–Burk analysis) was “mixed-type inhibitor”.
For O=C(O)c1ccc(NC(=O)c2cccc(CC3CCCCC3)c2)c(Cc2ccccc2)c1 [Compound 1], the “inhibition of the interaction of p53-MDM2” value (p53-MDM2) is given as “not found to inhibit” and the “results in size exclusion chromatography and HSQC experiments compared with DD2” value (KSHV Pr dimer; data not shown) is given as “produced similar results”.
With O=C(O)c1ccc(NC(=O)c2ccccc2CC2CCCCC2)c(Cc2ccccc2)c1 [Compound 5] the “effect of moving the cyclohexylmethyl side chain on inhibition (SAR)” value (KSHV Pr [3]) was “diminished inhibition”.
With O=C(O)c1ccc(NC(=O)c2ccc(CC3CCCCC3)cc2)c(Cc2ccccc2)c1 [Compound 4] the “effect of moving the cyclohexylmethyl side chain on inhibition (SAR)” value (KSHV Pr [3]) was “diminished inhibition”.
